Laboratory results published in patent US20230286973A1, “PROTEIN SECRETION INHIBITORS” (KEZAR LIFE SCIENCES, priority 2020, published 2023).
Values joined by “and” are separate entries in the source; they are usually repeats but may differ in a detail not shown here. Identical values can stand only once. Like-named read-outs stand apart in the source and are kept apart here.

Columns and labels:
[1] = test system: multiple myeloma cell line NCI-H929; experiment: H929 Cell Viability Assay; format: cell-based, human; details: NCI-H929 cells, Celltiter-Glo
Experimental: The human multiple myeloma cell line NCI-H929 was cultured in Advanced RPMI 1640 media (Gibco®) supplemented with 6% fetal bovine serum, 2 mM Glutamine, and 1× Penicillin/Streptomycin. On the day of assay, cells were resuspended in RPMI 1640 media supplemented with 10% fetal bovine serum, 2 mM Glutamine, and 1× Penicillin/Streptomycin and plated in 384-well tissue culture plates and treated with compound dilutions in DMSO/media. Plates were incubated at 37° C., 5% CO2 for 48 hours. After 48 hours, Celltiter-Glo® (Promega) was added to each well and luciferase signal was quantified using Tecan Infinite M1000 Pro for cell viability determination.
(§1) For chemical structures that include one or more stereoisomers, but are illustrated without indicating stereochemistry, the assay data refers to a mixture of stereoisomers.

[2] = test system: multiple myeloma cell line U266B1; experiment: U266 Cell Viability Assay; format: cell-based, human; details: Homo sapiens, U-266, 48 h, U266B1 cells, Celltiter-Glo
Experimental: The human multiple myeloma cell line U266B1 was cultured in RPMI 1640 media supplemented with 10% fetal bovine serum, 2 mM Glutamine, and 1× Penicillin/Streptomycin. Cells were plated in 384-well tissue culture plates and treated with compound dilutions in DMSO/media. Plates were incubated at 37° C., 5% CO2 for 48 hours. After 48 hours, Celltiter-Glo® (Promega) was added to each well and luciferase signal was quantified using Tecan Infinite M1000 Pro for cell viability determination.
as §1

[3] = test system: PD1-ss+10aa/Gaussia Luciferase; experiment: Dox-Induced PD1-ss-Gluc Assay; format: cell-based; details: 24 hr Dox induction, 293FRT/TO cells, read-out: 24 hr Dox Inducible PD1ssGluc 293FRT/TO: Mean IC50
Source text: Flp-In 293 T-REx™ cells were transfected with pcDNA™5/FRT/TO plasmid inserted with cDNA encoding Gaussia Luciferase fused to the 3′ end of cDNA encoding PD1 signal sequence plus 10 amino acids (N-[…]-C) (SEQ ID NO: 1). Transfected cells were selected for resistance to the selectable markers Hygromycin and Blasticidin to create a stable cell line that contained the PD1-ss+10aa/Gaussia Luciferase cDNA insert whose expression was regulated under the T-REx™ system. The day before assay, cells were trypsinized and plated in 384-well tissue culture plates. The next day, compound dilutions in DMSO/media containing doxycycline were added to the wells and incubated at 37° C., 5% CO2.
as §1

[4] = test system: IL-2-FL/Gaussia Luciferase; experiment: Dox Induced IL2-FL-Gluc Assay; format: cell-based; details: for IC50: 24 hr Dox induction, 293FRT/TO cells, read-out: 24 hr Dox Inducible IL2FLGluc 293FRT/TO: Mean IC50; for 24 hr Dox Inducible IL2FLGluc 293FRT/TO: IL2/PD1: ratio of IL2FLGluc IC50 to PD1ssGluc IC50
Source text: (§2) Flp-In 293 T-REx™ cells were transfected with pcDNA™5/FRT/TO plasmid inserted with cDNA encoding Gaussia Luciferase fused to the 3′ end of cDNA encoding full length IL-2 (amino acids 1-153). Transfected cells were selected for resistance to the selectable markers Hygromycin and Blasticidin to create a stable cell line that contained the IL-2-FL/Gaussia Luciferase cDNA insert whose expression was regulated under the T-REx™ system. The day before assay, cells were trypsinized and plated in 384-well tissue culture plates. The next day, compound dilutions in DMSO/media containing doxycycline were added to the wells and incubated at 37° C., 5% CO2.
as §1

[5] = Liver Microsome Stability Assay (mouse); details: mouse liver microsomes, with NADPH, 1.0 uM compound
Experimental: (§3) Stability of a compound was assessed in the presence of liver microsomes from various sources—mouse, rat, monkey and human liver microsomes. 1.0 uM compound, 0.4% DMSO in 0.1 M Potassium Phosphate with 1.0 mg/mL liver microsomes, were incubated at 37° C. with or without 1 mM NADPH. The samples were quenched at 0, and 30 minutes.

[6] = Liver Microsome Stability Assay (rat); details: rat liver microsomes, with NADPH, 1.0 uM compound
Experimental: as §3

[7] = Liver Microsome Stability Assay (monkey); details: monkey liver microsomes, with NADPH, 1.0 uM compound
Experimental: as §3

[8] = Liver Microsome Stability Assay (human); details: human liver microsomes, with NADPH, 1.0 uM compound
Experimental: as §3

[9] = test system: TNFα-FL/Gaussia Luciferase; experiment: Dox Induced TNFα-FL-Gluc Assay; format: cell-based
Source text: as §2, with “TNFα” for “IL-2”, “1-233).” for “1-153).”, “TNFα-FL/Gaussia” for “IL-2-FL/Gaussia”
as §1

[10] = '<=>' given where both are I.A.

| SMILES | EC50 ([1]; Homo sapiens, NCI-H929, 48 h) | EC50 [2] | IC50 ([3]; mean) | IC50 ([4]; mean) | Liver Microsome Stability (Multiple Species): Mouse - % Remaining after 30 min w/NADPH [5] | Liver Microsome Stability (Multiple Species): Rat - % Remaining after 30 min w/NADPH [6] | Liver Microsome Stability (Multiple Species): Monkey - % Remaining after 30 min w/NADPH [7] | Liver Microsome Stability (Multiple Species): Human - % Remaining after 30 min w/NADPH [8] | EC50 ([1]; 48 hr) | IC50 ([9]; 24 hr Dox induction, 293FRT/TO cells, mean, read-out: 24 hr Dox Inducible TNFaFLGluc 293FRT/TO: Mean IC50) | IC50 [3] | IC50 [4] | 24 hr Dox Inducible IL2FLGluc 293FRT/TO: IL2/PD1 [4, 10] | 24 hr Dox Inducible TNFaFLGluc 293FRT/TO: TNF/PD1 ([9]; ratio of TNFaFLGluc IC50 to PD1ssGluc IC50, '<=>' given where both are I.A.) | 24 hr Dox Inducible IL2FLGluc 293FRT/TO: IL2/PD1 [4] |
| --- | --- | --- | --- | --- | --- | --- | --- | --- | --- | --- | --- | --- | --- | --- | --- |
| O=C(Nc1nc([C@H]2CCCN2c2ccccc2)cs1)c1cccn1CC1=CCOCC1 [Compound C57, (R)-1-((3,6-dihydro-2H-pyran-4-yl)methyl)-N-(4-(1-phenylpyrrolidin-2-yl)thiazol-2-yl)-1H-pyrrole-2-carboxamide] | 23.3 µM | > 25 µM | 0.357 µM | 1.07 µM | 9.54% | 0.43% | 3.43% | 4.2% |  |  |  |  | 3 |  |  |
| C#CCCn1cccc1C(=O)Nc1nc([C@H]2CCCN2c2ccccc2)cs1 [Compound C62, (R)-1-(but-3-yn-1-yl)-N-(4-(1-phenylpyrrolidin-2-yl)thiazol-2-yl)-1H-pyrrole-2-carboxamide] | > 25 µM | > 25 µM | 8.44 µM | > 25 µM | 35.4% | 8.75% | 0.74% | 53% |  |  |  |  | >3.0 |  |  |
| N#Cc1cccc(Cn2cccc2C(=O)Nc2nc([C@H]3CCCN3c3ccccc3)cs2)c1 [Compound C49, (R)-1-(3-cyanobenzyl)-N-(4-(1-phenylpyrrolidin-2-yl)thiazol-2-yl)-1H-pyrrole-2-carboxamide] | > 25 µM | > 25 µM | 0.909 µM | 1.64 µM | 29.1% | 2.9% | 9.17% | 1.94% |  |  |  |  | 1.8 |  |  |
| O=C(Nc1nc([C@H]2CCCN2c2ccccc2)cs1)c1cccn1CC1CCS(=O)(=O)CC1 [Compound C37, (R)-1-((1,1-dioxidotetrahydro-2H-thiopyran-4-yl)methyl)-N-(4-(1-phenylpyrrolidin-2-yl)thiazol-2-yl)-1H-pyrrole-2-carboxamide] | > 25 µM | > 25 µM | > 25 µM | > 25 µM | 26% | 0.08% | 8.58% | 6.44% |  |  |  |  |  |  |  |
| O=C(Nc1nc([C@H]2CCCN2c2ccccc2)cs1)c1cccn1CC1CCC(F)(F)CC1 [Compound C21, (R)-1-((4,4-difluorocyclohexyl)methyl)-N-(4-(1-phenylpyrrolidin-2-yl)thiazol-2-yl)-1H-pyrrole-2-carboxamide] | > 25 µM | > 25 µM | > 25 µM | > 25 µM | 60.5% | 12.2% | 49% | 64% |  |  |  |  |  |  |  |
| CO[C@@H](CC#N)Cn1cccc1C(=O)Nc1nc([C@H]2CCCN2c2ccccc2)cs1 [Compound C97, 1-((S)-3-cyano-2-methoxypropyl)-N-(4-((R)-1-phenylpyrrolidin-2-yl)thiazol-2-yl)-1H-pyrrole-2-carboxamide] | 25 µM | > 25 µM | 3 µM and 4.65 µM |  | 3.9% and 3.33% | 5.97% and 7.43% |  | 4.81% and 6.52% | 23.6 µM | > 25 µM |  |  | 2.1 and > 3.6 | > 8.34 and > 5.37 |  |
| CC1=NC(C)(/C=C/c2csc(NC(=O)c3cccn3Cc3ccncc3)n2)CO1 (centres unmarked) [Compound B16] | > 25 µM | > 25 µM |  |  | 196% | 137% | 110% |  |  |  | 3.99 µM | > 25 µM |  |  | >6.3 |
| O=C(Nc1nc([C@H]2CCCN2c2ccc(OC3CCNCC3)cc2)cs1)c1cccn1Cc1ccncc1 [Compound A6, (R)-N-(4-(1-(4-(piperidin-4-yloxy)phenyl)pyrrolidin-2-yl)thiazol-2-yl)-1-(pyridin-4-ylmethyl)-1H-pyrrole-2-carboxamide] |  |  |  |  | 37.4% | 44.8% | 25.4% | 25.7% |  |  |  |  |  |  |  |

Second part, led by results:

| EC50 ([1]; Homo sapiens, NCI-H929, 48 h) | EC50 [2] | IC50 ([3]; mean) | IC50 ([4]; mean) | Liver Microsome Stability (Multiple Species): Mouse - % Remaining after 30 min w/NADPH [5] | Liver Microsome Stability (Multiple Species): Rat - % Remaining after 30 min w/NADPH [6] | Liver Microsome Stability (Multiple Species): Monkey - % Remaining after 30 min w/NADPH [7] | Liver Microsome Stability (Multiple Species): Human - % Remaining after 30 min w/NADPH [8] | EC50 ([1]; 48 hr) | IC50 ([9]; 24 hr Dox induction, 293FRT/TO cells, mean, read-out: 24 hr Dox Inducible TNFaFLGluc 293FRT/TO: Mean IC50) | IC50 [3] | IC50 [4] | SMILES | 24 hr Dox Inducible IL2FLGluc 293FRT/TO: IL2/PD1 [4, 10] | 24 hr Dox Inducible TNFaFLGluc 293FRT/TO: TNF/PD1 ([9]; ratio of TNFaFLGluc IC50 to PD1ssGluc IC50, '<=>' given where both are I.A.) | 24 hr Dox Inducible IL2FLGluc 293FRT/TO: IL2/PD1 [4] |
| --- | --- | --- | --- | --- | --- | --- | --- | --- | --- | --- | --- | --- | --- | --- | --- |
| 6.9 µM | 9.51 µM | 0.00967 µM | 2.16 µM |  |  |  |  |  |  |  |  | CC(C)c1ccc(/C=C/c2csc(NC(=O)c3cccn3Cc3ccncc3)n2)nc1 [Compound E57, (E)-N-(4-(2-(5-isopropylpyridin-2-yl)vinyl)thiazol-2-yl)-1-(pyridin-4-ylmethyl)-1H-pyrrole-2-carboxamide] | 220 |  |  |
| 21.5 µM | > 25 µM | 0.0916 µM | 4.36 µM |  |  |  |  |  |  |  |  | CC(C)c1cccnc1/C=C/c1csc(NC(=O)c2cccn2Cc2ccncc2)n1 [Compound E56, (E)-N-(4-(2-(3-isopropylpyridin-2-yl)vinyl)thiazol-2-yl)-1-(pyridin-4-ylmethyl)-1H-pyrrole-2-carboxamide] | 48 |  |  |
| 0.762 µM | > 25 µM | 0.00953 µM | 0.0229 µM |  |  |  |  |  |  |  |  | O=C(Nc1nc([C@H]2CCCN2c2ccccc2)cs1)c1cccn1Cc1ccnc(F)c1 [Compound E26, (R)-1-((2-fluoropyridin-4-yl)methyl)-N-(4-(1-phenylpyrrolidin-2-yl)thiazol-2-yl)-1H-pyrrole-2-carboxamide] | 2.4 |  |  |
